{"source": "paper PMC6315541", "about": "“Nile Tilapia Derived Antimicrobial Peptide TP4 Exerts Antineoplastic Activity Through Microtubule Disruption” (Marine Drugs, 2018)", "key": {"[1]": {"tested_on": "microtubule network (α-Tubulin) in A549 cells", "experiment": "Immunocytochemistry of microtubule network and peptide uptake in A549 cells", "type": "cell-based, human", "conditions": "for effect on microtubule network (α-Tubulin ICC): FITC-labeled mutants", "experimental": "(§1) To examine whether TP4 may affect microtubule dynamics, A549 cells were treated with TP4, and cytoskeletal elements were analyzed by immunocytochemistry (ICC). […] We then asked whether TP4 treatment may influence tubulin protein levels by performing Western blots on lysates from A549 cells that had been treated with vehicle or TP4. […] We next conducted a microtubule regrowth assay to further address whether TP4 may disrupt microtubule polymerization. TP4 was applied to A549 cells that had been treated with or without Nocodazole (20 μM) treatment for 6 h, which completely depolymerizes the microtubule network. The repolymerization of microtubules was then initialized by the addition of fresh recovery medium, and regrowth was analyzed by ICC.\nWhile the reduced toxicity may result from impaired binding to tubulin, it is also possible that such effects may be caused by conformational changes in the TP4 mutants, see Supplementary Figure S1C,D, which prevent intracellular penetration. To test this possibility, ICC was conducted to evaluate the cellular localization and the effects on microtubules. […] For both Gly and Ala substitution mutants, FITC-labeled TP4 mutants were able to be taken up intracellularly, see Figure 6B, panels MT-1 to MT-6. However, the microtubule network was only affected in MT-1- and MT-4-treated cells and not the other mutant-treated groups, as shown in Figure 6B.\nFigure 6 Loss of cancer-killing ability in TP4 mutants. (A) Cell viability in A549 cells was determined by the adenosine triphosphate (ATP) assay following treatment with varying doses of TP4 and TP4 mutants for 24 h. Multiple wells were analyzed for each assay. Results represent the mean ± SD. Statistical comparisons between groups were performed using two-way ANOVA: a, not significant; b, p < 0.05; d, p < 0.001. Statistical analyses are shown in Supplementary Table S1. (B) Cells were stained for TP4 (WT panel), FITC (MT-1 to MT-6 panels), α-Tubulin, and F-actin. Hoechst33342 was used for nuclei staining. Boxed regions are magnified in the furthest right panels. […] Bar: 20 μm.\nCells were stained with TP4 (1:1000), FITC (1:500, ThermoFisher Scientific, clone 1F8-1E4), α-Tubulin (1:500), and appropriate Alexa Flour conjugated secondary antibody (1:500; ThermoFisher Scientific, Eugene, OR, USA). Hochest33342 was used for nuclear staining, and Alexa Fluor 647-conjugated phalloidin (1:200, Thermo Fisher Scientific, Eugene, OR, USA) was used to stain F-actin. For the confocal microscopic analysis, samples were mounted with fluorescent mounting medium (ProLong Gold Antifade Reagent, ThermoFisher Scientific, Eugene, OR, USA) and images were obtained with a FV3000 laser-scanning confocal microscope (Olympus), using a 60 × objective lens (Plapon 60 × OSC2, N.A. 1.4, oil) with the 4′,6-diamidino-2-phenylindole (DAPI) ([…]), green fluorescent protein (GFP) (EX 470, EM 525 for enhanced GFP (EGFP)), and Cy5 ([…]) emission filters. FV31S software (Olympus, Tokyo, Japan) was used for image acquisition."}, "[2]": {"tested_on": "microtubule regrowth in A549 cells", "experiment": "Microtubule regrowth assay after nocodazole washout", "type": "cell-based, human", "conditions": "10 μg mL^−1 TP4 3 h, nocodazole 20 μM 6 h, washout and recovery medium, α-Tubulin ICC, N = 3", "experimental": "as §1\nFigure 2 TP4 disrupts the microtubule network in cancer cells. (A) Cells were stained for α-Tubulin and F-actin. Hoechst33342 was used to stain nuclei. Arrows indicate cells with negative α-Tubulin staining. Bar: 20 μm. (B) Total lysates from cells with mock (labeled C) or TP4 treatment (labeled T) were analyzed by Western blot using antibodies against GAPDH and α-Tubulin. Quantification of the α-Tubulin signal normalized to GAPDH is shown. Mr is the molecular weight. […] Bar: 20 μm (D) Quantification of the number of cells with Tubulin-positive and Tubulin-negative staining. […]"}}}
{"sequence": "FIHHIIGGLFSAGKAIHRLIRRRRR [TP4, synthesized Nile tilapia-derived antimicrobial peptide, Tilapia piscidin 4]", "values": [{"measurement": "effect on microtubule network (α-Tubulin ICC; F-actin not affected)", "setting": "[1]; A549 cells treated with TP4, Figure 2A", "value": "clearly affected"}, {"measurement": "effect on microtubule network (α-Tubulin ICC)", "setting": "[1]; A549 cells, TP4 6.71 μM, 3 h, Figure 6B", "value": "microtubule defects were clearly observed"}, {"measurement": "effect on microtubule network (α-Tubulin ICC)", "setting": "[1]; A549 cells, TP4 6.71 μM, 3 h, Figure 6B, listed as WT", "value": "microtubule abnormalities were observed"}, {"measurement": "intracellular uptake (ICC, TP4 antibody or FITC)", "setting": "[1]; A549 cells, TP4 6.71 μM, 3 h, mutants FITC-labeled, Figure 6B", "value": "peptide penetration"}, {"measurement": "cells with microtubule regrowth defects", "setting": "[2]", "value": "increased portion of TP4-treated cells had microtubule regrowth defects"}]}
